The source of these data is patent publication US20220135941A1, “COMPOSITIONS AND METHODS FOR LONG TERM CULTURE OF HEPATOCYTES” (Peking University, priority 2019, published 2022).

For experiment [1], the system named is primary human hepatocytes (PHHs). As to the method:
(§1) The present study was approved by the Research Ethics Committee of China-Japan Friendship Hospital (Ethical approval No: 2009-50). PHHs were obtained from human donors. Human hepatocytes were isolated from discarded human livers. A modified two-step collagenase perfusion procedure was used to isolate primary human hepatocytes from these tissues (OOtani, et al., Nat Med., 15:701-706 (2009)). Briefly, the liver tissue was perfused with PB (perfusion buffer: 0.15 M NaCl; 5 mM KCl; 25 mM NaHCO3; 5 mM Glucose; 20 mM Hepes) to remove remaining blood cells, followed by PBE (perfusion buffer plus 1 mM EDTA) perfusion. The tissue was then perfused with PBC (perfusion buffer plus 1 mg/mL collagenase type IV, 5 mM CaCl2, Gibco). All the buffers were prewarmed to 37° C. prior to the isolation process. The hepatocytes suspension was collected and washed with Williams' Medium E (Gibco), then filtered through a 40 μm Nylon cell strainer (Falcon). The isolated hepatocytes were then seeded on collagen type I-coated (Rat tail collagen type I, Gibco) plates at a density of 2.5×10^5/cm2.
(§2) Serum-free medium used for hepatocyte culture (Null): Williams' medium E containing B27 (50×, Gibco), Glutmax (Gibco) and Pen Strep (Gibco). DMSO vehicle control: Null supplemented with nearly 0.035% DMSO. […] 24 h-Cultured hepatocytes were cultured in commercial medium HCM (Lonza).
Total RNA was isolated using the RNeasy Micro Kit (QIAGEN). RNA was converted to cDNA using First-Strand Synthesis SuperMix for qRT-PCR (Invitrogen). PCR was carried out using Power SYBR® Green PCR Master Mix (Applied Biosystems) and performed on an MX3000P Sequence Detection System (Stratagene). The data were analyzed using the delta-delta Ct method.

For experiment [2] the test system is unchanged. Briefly: PHH culture: morphology and survival. Type of experiment: cell-based. As for the experimental part:
as §1, §2

Experiment [3] has the same test system. Briefly: RNA-Seq global gene expression profiling of cultured PHHs. Type of experiment: cell-based. The note with it: hierarchical clustering. An excerpt:
Total RNA was isolated using the RNeasy Plus Mini Kit (QIAGEN). RNA sequencing libraries were constructed using the Illumina mRNA-Seq Prep Kit (Illumina). Fragmented and randomly primed 150 bp paired-end libraries were sequenced using Illumina HiSeq 4000. Software and algorithms used for transcriptome analysis are including Cutadapt 1.16 (http://cutadapt.readthedocs.io/en/stable/guide.html), Salmon 0.8.2 (https://combinelab. github.io/salmon/), and R 3.5.0 (https://www.r-project.org). The expression profiles of HepG2, F-PHHs-3 and F-PHHs-4 were downloaded as raw data. The expression profiles of PHH 0d, hiPSC-Hep rep1, hiPSC-Hep rep2, hiPSC-Hep rep3 and hiPSC-Hep rep4 (Gordillo, et al., Development, 142:2094-2108 (2015)) were downloaded as raw sequencing reads from GEO database (GSM2817112, GSM2753376, GSM2753377, GSM2753378, GSM2753379). To compare gene expression profile between paired-end and single end libraries, we used the read1 from our generated sequencing paired-end reads. The read1 and the downloaded single-end read were trimmed to the same 40 bp length by using Cut adapt. The expression values for each sample were quantified by Salmon. Unsupervised hierarchical clustering of RNA-Seq data was generated by hclust package in R.

Experiment [4] concerns HCV Jc1G. Briefly: HCV infection of 5C-PHHs. Type of experiment: cell-based. To be noted: Gluc reporter and intracellular HCV RNA. As to the method:
The Huh7.5 cell line was kindly provided by Professor Charles Rice and was routinely maintained in Dulbecco modified medium supplemented with 10% fetal bovine serum (Biological industries), 25 mM HEPES (Gibco) and Non-Essential Amino Acid (Gibco). For generating the cell cultured HCV, the plasmid encoding HCV Jc1FLAG2 (p7-nsGluc2A) (Jc1G in the text) was first linearized by XbaI digestion, and used as template for in-vitro-transcription by using MEGAscript (Invitrogen). HCVcc was generated as described previously by electroporation of the in-vitro-transcribed Jc1G RNA into Huh7.5 cells. Virus containing supernatants were harvested each day after 3 days post electroporation' and up to 7 days post electroporation. Supernatants were combined and the virus was concentrated by centrifugation using Amicon® Ultra-15 (100K) Centrifugal Filter Devices (Millipore) at 5000 g for 30 min at 4° C. The buffer was exchanged into PBS by repeated centrifugation with Amicon® Ultra-15. […]
For quantification of intracellular HCV RNA, cells were lysed in Trizol reagent (Invitrogen). […] The relative RNA levels were calculated using the 2-ΔΔCt method. […]
For quantification of luciferase activity, supernatants from each well were taken and mixed with equal volume of 2×passive lysis buffer (Promega). Luciferase activity was measured with Renilla luciferase substrate (Promega) according to manufacturer's protocol.

Experiment [5] deals with HBV. Briefly: HBV infection of 5C-PHHs. Type of experiment: cell-based. The note with it: for HBV products (HBsAg, HBeAg, HBV RNA, HBV DNA, cccDNA) in infected 5C-PHHs: drug treatment of HBV infected 5C-PHHs.
The subject of experiment [6] is interferon-stimulated genes (ISGs). The experiment in a line: ISG expression in long-term cultured 5C-PHHs. Type of experiment: cell-based, human.

Consider `NC(=O)c1ccc(-c2nc(-c3ccc4c(c3)OCO4)c(-c3ccccn3)[nH]2)cc1` [SB43, 4-[4-(1,3-benzodioxol-5-yl)-5-(2-pyridinyl)-1H-imidazol-2-yl]benzamide], for which, in experiment [1] (SB43 alone), the “expression of EMT-associated transcription factors SNAI2, TWIST1” value is given as “failed to suppress”. In experiment [1] (blocking TGF-β signaling with SB43 alone), the “maintaining the functional state of PHHs” value is “limited effect”. Moreover, the “epithelial morphology with the expression of E-cadherin” value in experiment [2] (SB43 treatment, after 2 weeks) is on record as “maintained an epithelial morphology”.
As to `CCCC(=O)Nc1ncnc2c1ncn2[C@@H]1O[C@@H]2COP(=O)([O-])O[C@H]2[C@H]1OC(=O)CCC.[Na+]` [db-cAMP, Dibutyryl-cAMP, sodium salt], in experiment [3], the “global gene expression of PHHs when FSK is substituted” value was “replaced FSK”.
Daclatasvir [DCV]: the “HCV viral replication in 5C-PHHs” value in experiment [4] was “effectively blocked”.
Regarding Forskolin [FSK], the “EMT marker gene expression α-smooth muscle actin (ASMA)” value in experiment [1] (combined with SB43, qRT-PCR at day 14) is “down-regulated”. Moreover, the PHH survival result in experiment [2] (combined with SB43) is reported as “sustained PHH survival”.
For the molecule entecavir [ETV], the “HBV products (HBsAg, HBeAg, HBV RNA, HBV DNA, cccDNA) in infected 5C-PHHs” value (“HBV products” for short) in experiment [5] is on record as “reduction of HBV products”.
For the molecule `C[C@H](NC(=O)Cc1cc(F)cc(F)c1)C(=O)N[C@H](C(=O)OC(C)(C)C)c1ccccc1` [DAPT], the “expression of EMT marker genes (COL1A1; Thy1; VIM)” value in experiment [1] (added to SB43 and FSK combination) is reported as “further blocked”. Besides, in experiment [1] (combined with SB43 and FSK, day 14, normalized to FSK+SB43), the “expression of mesenchymal marker gene COL1A1” value is recorded as “decreased”.
Consider interferon-α [IFN-α], for which the cccDNA entry in experiment [5] (cryopreserved PHHs cultured in 5C) is listed as “significant reduction”. Moreover, the “HBV products” value in experiment [5] is reported as “reduction of HBV products”. In addition, the “interferon-stimulated genes (ISGs) expression” value in experiment [6] is given as “significantly upregulated”.
As to `Nc1ccn([C@@H]2CS[C@H](CO)O2)c(=O)n1` [LAM, lamivudine], the “HBV products” value in experiment [5] is “reduction of HBV products”.
